Like-named read-outs stand apart in the source and are kept apart here.
Key:
HeLa cells [1] = assay: Cell cycle distribution by flow cytometry; details: 18 h, 125 nM AF, 200 nM AI, 35 nM AJ
[2] = test system: βIII-tubulin expressing HeLa cell line (WTβIII); assay: Inhibition of cellular proliferation, SRB assay, βIII-tubulin expressing WTβIII cell line; assay type: cell-based; details: for IC50: WTβIII, average of 3-4 independent experiments; for relative resistance (Rr): IC50 WTβIII divided by IC50 HeLa
Protocol: (§1) The HeLa cervical cancer cell line, the SK-OV-3 ovarian cancer cell line and the PC-3 prostate cancer cell line were obtained from American Type Tissue Culture Collection (Manassas, Va.) and grown in Basal Media Eagle (BME) or RPMI 1640 medium (Invitrogen; Carlsbad, Calif.) supplemented with 10% fetal bovine serum (Hyclone; Logan, Utah) and 50 μg/ml gentamicin sulfate (Invitrogen). The P-glycoprotein expressing SK-OV-3/MDR-1-6/6 cell line and the βIII-tubulin expressing WTβIII cell line have been described previously (Risinger et al., 2008).
(§2) The antiproliferative and cytotoxic effects of the taccalonolides were evaluated using the SRB assay (Skehan et al., 1990, Boyd and Paull, 1995) as previously described (Tinley et al., 2003). The concentration of drug that causes 50% inhibition of cellular proliferation (IC50) was calculated from the linear portion of the log dose response curve. The ability of the compounds to initiate cytotoxicity was also determined. […] The determination of IC50 values was performed on taccalonolide material after NMR analysis and subsequent lyophilization. Ethanol or DMSO was used as the vehicle for all cellular studies.
(§3) The ability of taccalonolides AF and AJ to inhibit the proliferation of both drug sensitive cancer cells, including ovarian cancer cells (SK-OV-3), cervical cancer cells (HeLa) and prostate cancer cells (PC-3) and drug resistant cells, including the P-glycoprotein expressing SK-OV-3 line (SK-OV-3/MDR-1-6/6) and the βIII-tubulin expressing HeLa cell line (WTβIII) was determined.
(§4) Referring to Table 3, the effect of the taccalonolides in drug resistant and sensitive cells is shown. IC50 values for inhibition of cellular proliferation for taccalonolides AF and AJ were determined in drug sensitive and drug resistant cell lines. The HeLa cell pair evaluated the effect of βIII tubulin expression on cell sensitivity and the ability of compounds to overcome drug resistance mediated by βIII tubulin expression. The SK-OV-3 cell line pair was used to evaluate the effects of the expression of P-glycoprotein (Pgp) on cell sensitivity and the ability of compounds to overcome Pgp-mediated drug resistence. The effects of the taccalonolides on the drug senstive prostate cancer cell line PC-3 are also presented. IC50 values were calculated from an average of 3-4 independent experiments, each performed in triplicate.

[3] = test system: SK-OV-3/MDR-1-6/6 cell line; assay: Inhibition of cellular proliferation, SRB assay, P-glycoprotein expressing SK-OV-3/MDR-1-6/6 cells; assay type: cell-based; details: for IC50: SK-OV-3/MDR-1-6/6, average of 3-4 independent experiments; for relative resistance (Rr): IC50 SK-OV-3/MDR-1-6/6 divided by IC50 SK-OV-3
Protocol: as §1, §2, §3, §4

[4] = test system: SK-OV-3 ovarian cancer cell line; assay: Inhibition of cellular proliferation, SRB assay, SK-OV-3 cells; assay type: cell-based; details: average of 3-4 independent experiments
Protocol: as §1, §2, §3
(§5) Referring to Table 3, the effect of the taccalonolides in drug resistant and sensitive cells is shown. IC50 values for inhibition of cellular proliferation for taccalonolides AF and AJ were determined in drug sensitive and drug resistant cell lines. The HeLa cell pair evaluated the effect of βIII tubulin expression on cell sensitivity and the ability of compounds to overcome drug resistance mediated by βIII tubulin expression. […] IC50 values were calculated from an average of 3-4 independent experiments, each performed in triplicate.

MDA-MB-231-BR-Luc2 cells = assay: Growth of intracranially injected breast cancer cells in the brain, luciferase imaging; assay type: in vivo, female athymic nude mice; details: for brain tumor photon counts, day 0: day 0, 10 second exposure; for brain tumor photon counts, day 0 / brain tumor photon counts, day 7: one mouse each, AF 2.2 mg/kg ip, paclitaxel 20 mg/kg ip on days 0 and 4; for brain tumor photon counts, day 7: day 7, 10 second exposure
Protocol: Referring to FIG. 15, A brain-seeking clone of the MDA-MB-231 triple negative breast cancer cell line stably transfected with luciferase was injected intracranially (1×10^6 MDA-MB-231-BR-Luc2 cells in 5 μL PBS) into female athymic nude mice. […] On day 7, mice were again imaged as described above (FIGS. 15C, D). The brain tumor in the mouse treated with taccalonolide AF measured 2.2×10^3 photon counts with an exposure time of 10 seconds on day 0 but was undetectable with the same 10 second exposure time on day 7. A longer exposure time of 60 seconds gave a photon count of 2.4×10^3.

[5] = test system: PC-3 prostate cancer cell line; assay: Inhibition of cellular proliferation, SRB assay, PC-3 cells; assay type: cell-based; details: average of 3-4 independent experiments
Protocol: as §1, §2, §3, §5

[6] = test system: human mammary epithelial cells; assay: Cytotoxicity to normal cells; assay type: cell-based; details: concentrations 5 to 100-fold the IC50 values in the HeLa cancer cell line
[7] = test system: purified porcine brain tubulin; assay: Tubulin polymerization followed turbidimetrically; assay type: biochemical; details: 10 μM compound, 2 mg/ml tubulin, 10% glycerol, 1 mM GTP, 37° C., OD340
Protocol: The ability of these new potent taccalonolides to interact directly with tubulin was assessed by incubating purified porcine brain tubulin at a concentration of 2 mg/ml in the presence of 10% glycerol and 1 mM GTP, which allows for a baseline level of tubulin polymerization that can be followed turbidimetrically (FIG. 5).
Tubulin polymerization was monitored by turbidity measurement at OD340.

HeLa cells [8] = assay: Inhibition of cellular proliferation, SRB assay, HeLa cells; assay type: cell-based; details: for increase in potency as compared to the parent taccalonolide on C22-C23 epoxidation: HeLa IC50 ratio, parent/epoxide
Protocol: The ability of the compounds to initiate cytotoxicity was also determined. […] The determination of IC50 values was performed on taccalonolide material after NMR analysis and subsequent lyophilization. Ethanol or DMSO was used as the vehicle for all cellular studies.
The antiproliferative potencies of the taccalonolides were evaluated in HeLa cells using the SRB assay.

[9] = test system: MDA-MB-231 human breast tumors; assay: Antitumor activity in MDA-MB-231 breast tumor xenograft; assay type: in vivo, Nude mice; details: 2.5 mg/kg on days 0 and 4 or 2.0 mg/kg on days 0, 3, and 7
Protocol: The ability of taccalonolide AF to inhibit the growth of the aggressive human breast tumor MDA-MB-231 in a murine host was determined. Taccalonolide AF was administered at a dose of 2.5 mg/kg on days 0 and 4 or 2.0 mg/kg on days 0, 3, and 7.
Referring to FIG. 6, Nude mice bearing bilateral MDA-MB-231 human breast tumors were treated with 2.0 mg/kg of AF on days 0, 3 and 7, 2.5 mg/kg AF on days 0 and 4, or 10 mg/kg PTX on days 0, 2, 4 and 7 as a positive control. Tumor volume was measured using calipers and mass calculated with the formula: Tumor mass (mg)=0.5×[…]. Median tumor mass with standard error of the mean (n=10) are graphically represented. *p<0.05, **p<0.01.

HeLa cells [10] = assay: Mitotic spindle structures, indirect immunofluorescence; assay type: cell-based; details: 18 h, 125 nM AF, 200 nM AI, 35 nM AJ
Protocol: Cellular microtubules in interphase and mitotic HeLa cells were visualized using indirect immunofluorescence techniques as previously described (Tinley et al., 2003). […] Representative images of interphase and mitotic cells were acquired using a Nikon Eclipse 80i fluorescence microscope and compiled using NIS Elements AR 3.0 software.
The effects of the taccalonolides on mitotic spindle structures were evaluated to test whether they caused mitotic spindle defects leading to cell cycle arrest. β-tubulin and DNA were visualized in HeLa cells by indirect immunofluorescence and DAPI staining, respectively. […] These mitotic cells contained multiple abnormal mitotic spindles, which is another common effect of microtubule stabilizing agents (FIGS. 4A-D).
The microtubule structures in mitotic cells were visualized by indirect immunofluorescence using a β-tubulin antibody.

[11] = HeLa cells, SRB assay, read-out: IC50
[12] = HeLa, average of 3-4 independent experiments, read-out: IC50 for inhibition of cellular proliferation, HeLa

Row | SMILES | brain tumor photon counts, day 0 (MDA-MB-231-BR-Luc2 cells) | brain tumor photon counts, day 7 (MDA-MB-231-BR-Luc2 cells) | cytotoxicity of normal cells [6] | rate and extent of tubulin polymerization [7] | increase in potency as compared to the parent taccalonolide on C22-C23 epoxidation (HeLa cells [8]) [fold] | IC50 (HeLa cells [8]; [11]) [nM] | IC50 (HeLa cells [8]; [12]) [nM] | relative resistance (Rr) [2] | IC50 [2] [nM] | relative resistance (Rr) [3] | IC50 [3] [nM] | IC50 [4] [nM] | effect on mitotic spindle structures (HeLa cells [10]) | IC50 [5] [nM] | further results
1 | CC(=O)O[C@H]1C(=O)[C@@]2(C)[C@H]([C@H](OC(=O)c3ccccc3)[C@]3(O)C[C@H](OC(=O)[C@H](O)[C@@H](NC(=O)c4ccccc4)c4ccccc4)C(C)=C1C3(C)C)[C@]1(OC(C)=O)CO[C@@H]1C[C@@H]2O [Paclitaxel, paclitaxel, reference compound] | 1.8×10^4 photon counts | 9.0×10^4 photon counts | – | – | – | – | – | – | – | – | – | – | – | – | effect on mitotic progression / cell cycle distribution (HeLa cells [1]): mitotic arrest; IC50 ([2]; Homo sapiens, HeLa): 17.8 ± 1.2 nM; IC50 ([3]; Homo sapiens): 785 ± 88 nM; IC50 ([4]; Homo sapiens): 3.8 ± 0.2 nM; IC50 ([5]; Homo sapiens): 3.7 ± 0.2 nM
2 | CC(=O)O[C@@H]1[C@H]2[C@H]3[C@H]([C@H](OC(C)=O)[C@H](OC(C)=O)[C@]2(C)[C@H]2[C@H](C)[C@H]4O[C@]45OC(=O)[C@@](C)(O)[C@]5(C)[C@@H]12)[C@]1(C)[C@H](C[C@@H]2O[C@@H]2[C@@H]1OC(C)=O)C(=O)[C@@H]3O [Taccalonolide AF] | 2.2×10^3 photon counts | undetectable | No cytotoxicity | dramatically increased | 234 | 23 | 23.6 ± 2.1 | (1.3) | 30.6 ± 3.3 | (4.6) | 366 ± 30.6 | 79.4 ± 3.5 | mitotic arrest of cells with multiple abnormal mitotic spindles | 128 ± 16 | antitumor activity compared to vehicle treated controls [9]: sufficient to observe antitumor activity; antitumor activity compared to positive control 10 mg/kg paclitaxel ([9]; paclitaxel days 0, 2, 4 and 7): equivalent or greater than the positive control; brain tumor photon count, day 7, longer exposure (MDA-MB-231-BR-Luc2 cells; day 7, 60 seconds exposure, AF 2.2 mg/kg ip on days 0 and 4): 2.4×10^3 photon count
3 | CC(=O)O[C@H]1[C@H]2[C@H]([C@@H]3[C@@H](O)[C@@H]4[C@H]([C@H](C)[C@@H]5O[C@@]56OC(=O)[C@@](C)(O)[C@]46C)[C@@]3(C)[C@H]1OC(C)=O)[C@@H](O)C(=O)[C@H]1C[C@@H]3O[C@@H]3[C@H](OC(C)=O)[C@]21C [Taccalonolide AJ] | – | – | No cytotoxicity | dramatically increased | 743 | 4.3 | 6.6 ± 0.3 | (1.7) | 11.1 ± 0.6 | (7.8) | 126 ± 12.8 | 16.3 ± 0.8 | mitotic arrest of cells with multiple abnormal mitotic spindles | 25.1 ± 4 | –
4 | CC(=O)O[C@H]1C[C@H]2[C@H]([C@@H]3[C@@H](O)[C@@H]4[C@H]([C@H](C)C=C5OC(=O)[C@@](C)(O)[C@@]54C)[C@]31C)[C@@H](O)C(=O)[C@H]1C[C@@H]3O[C@@H]3[C@H](OC(=O)CC(C)C)[C@@]12C [Taccalonolide AI] | – | – | – | – | – | – | – | – | – | – | – | – | mitotic arrest of cells with multiple abnormal mitotic spindles | – | IC50 (HeLa cells [8]; HeLa cells, SRB assay, parent taccalonolide, read-out: IC50): 47 nM

From patent US20200071351A1, “TACCALONOLIDE MICROTUBULE STABILIZERS” (THE BOARD OF REGENTS OF THE UNIVERSITY OF TEXAS SYSTEM, priority 2016, published 2020)
